The source of these data is PMC7582308, “Functional Characterization of a Dendrobium officinale Geraniol Synthase DoGES1 Involved in Floral Scent Formation” (International Journal of Molecular Sciences, 2020).

The experiment has as its target T1, DoGES1 (Dendrobium officinale, UniProt A0A7H9SVV5).
T1 construct: gene GES1
T1 sequence (A0A7H9SVV5 1-582): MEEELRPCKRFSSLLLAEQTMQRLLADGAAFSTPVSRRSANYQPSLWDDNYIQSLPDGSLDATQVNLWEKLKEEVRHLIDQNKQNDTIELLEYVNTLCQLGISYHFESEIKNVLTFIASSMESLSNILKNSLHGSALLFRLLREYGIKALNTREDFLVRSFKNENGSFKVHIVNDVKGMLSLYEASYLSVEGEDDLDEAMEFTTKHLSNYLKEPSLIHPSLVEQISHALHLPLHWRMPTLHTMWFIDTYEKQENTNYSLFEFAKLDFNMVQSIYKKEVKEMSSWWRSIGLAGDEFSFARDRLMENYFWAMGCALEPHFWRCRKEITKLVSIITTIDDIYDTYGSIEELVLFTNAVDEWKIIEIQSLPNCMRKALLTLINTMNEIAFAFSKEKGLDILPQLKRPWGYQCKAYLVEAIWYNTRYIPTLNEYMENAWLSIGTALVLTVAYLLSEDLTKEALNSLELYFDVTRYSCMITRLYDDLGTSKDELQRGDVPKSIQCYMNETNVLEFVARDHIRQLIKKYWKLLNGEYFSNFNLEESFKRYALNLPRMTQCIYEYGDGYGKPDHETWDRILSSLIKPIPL
Put plainly: GC-MS detection of geraniol product. It is filed as biochemical. The note with it: 10 mM GPP, 10 mM MgCl2, 5 mM dithiothreitol, MOPSO pH 7.0, 30 °C, 1 h.

Consider `CC(C)=CCC/C(C)=C/COP(=O)(O)OP(=O)(O)O` [geranyl pyrophosphate], for which the “GC-MS detection of geraniol product” value was “After incubation with GPP as substrate for the synthesis of monoterpenes, recombinant DoGES1 proteins successfully yielded geraniol”.
